Measurements taken from PubChem BioAssay (NCI).
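Step 1: Grow cells in 96-well plates. Step 2: Expose to compound for 48 hours at 5 concentrations. Step 3: Interpolate endpoints linearly; if unreached, use highest concentration. GI50 = concentration required for 50% inhibition of growth. TGI is the concentration that stops growth completely.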

Assays:
Assay in all cases: NCI tumour cell line growth inhibition, 48 h
786-0 renal = test system: 786-0 renal
OVCAR-3 ovarian = test system: OVCAR-3 ovarian
SR leukemia = test system: SR leukemia
HCT-116 colon = test system: HCT-116 colon
ACHN renal = test system: ACHN renal
SW-620 colon = test system: SW-620 colon
BT-549 breast = test system: BT-549 breast
HCT-15 colon = test system: HCT-15 colon
SF-268 CNS = test system: SF-268 CNS
SF-539 CNS = test system: SF-539 CNS

| Compound | TGI (786-0 renal) [µM] | TGI (OVCAR-3 ovarian) [µM] | TGI (SR leukemia) [µM] | TGI (HCT-116 colon) [µM] | TGI (ACHN renal) [µM] | TGI (SW-620 colon) [µM] | TGI (BT-549 breast) [µM] | TGI (HCT-15 colon) [µM] | TGI (SF-268 CNS) [µM] | TGI (SF-539 CNS) [µM] | GI50 (SF-268 CNS) [µM] | GI50 (OVCAR-3 ovarian) [µM] | GI50 (SR leukemia) [µM] | GI50 (HCT-116 colon) [µM] | GI50 (ACHN renal) [µM] | GI50 (SF-539 CNS) [µM] | GI50 (HCT-15 colon) [µM] |
| --- | --- | --- | --- | --- | --- | --- | --- | --- | --- | --- | --- | --- | --- | --- | --- | --- | --- |
| NC(=S)NC/C=C/Cl | > 100 | > 100 | > 100 | > 100 | > 100 | > 100 | > 100 | > 100 |  |  |  |  |  |  |  |  |  |
| O=C1/C(=C/c2cccc3ccccc23)CCc2ccc([N+](=O)[O-])cc21 | 65.5 | 12.7 |  | 71 | > 100 | > 100 | 45.5 | > 100 | > 100 | 73.5 |  |  |  |  |  |  |  |
| CC(C)(C)C1=C(Br)C(O)(C(C)(C)C)OP1(=O)c1ccccc1 (stereo not given) | > 100 | > 100 |  |  | > 100 | > 100 |  | > 100 | > 100 | > 100 |  |  |  |  |  |  |  |
| CCCCN(C)/N=N/c1nc[nH]c1C(N)=O |  | > 100 |  | > 100 |  | > 100 |  | > 100 | > 100 | > 100 |  |  |  |  |  |  |  |
| N/C(=N\N=C\c1ncccc1O)NO |  | > 100 |  | > 100 |  | > 100 |  | > 100 | 90.8 | 59.1 |  |  |  |  |  |  |  |
| CC1(C)Oc2ccc3c(=O)cc(-c4ccccc4)oc3c2C1C(=O)O (stereo not given) | > 100 | > 100 | > 100 | > 100 |  |  | > 100 | > 100 | > 100 | > 100 |  |  |  |  |  |  |  |
| C[C@H](C1CC2(C)OC2(C)C(=O)O1)[C@H]1CC[C@H]2[C@@H]3[C@@H]4O[C@@H]4[C@@]4(O)CC=CC(=O)[C@]4(C)[C@H]3CC[C@]12C (stereo not given in full) | > 50 | > 50 |  | > 50 | > 50 | > 50 | > 50 | > 50 | > 50 |  |  |  |  |  |  |  |  |
| COc1ccc(C(=O)/C=C/c2cc(-c3cc(OC)c(OC)c(OC)c3)n[nH]2)cc1 |  | 3.56 | 23.9 | 5.86 | 3.63 |  |  | 4.37 | 5.12 | 3.08 | 1.99 | 1.74 | 0.347 | 1.73 | 1.96 | 1.62 | 1.58 |
| O=[N+]([O-])/C(C(Cl)=C(Cl)Cl)=C(/Nc1cccc2cccnc12)n1nnc2ccccc21 | 43.8 | 23.7 |  | > 100 | 49.8 | 31.3 | 35.8 | 28.1 | 37.4 | 38.2 |  |  |  |  |  |  |  |
| S=C1SC(=Nc2ccccc2)C(=Nc2ccccc2)N1c1ccc2ccccc2c1 |  | > 100 | > 100 | > 100 |  |  | > 100 | > 100 |  |  |  |  |  |  |  |  |  |
| COc1ccc(Oc2ccccc2N)cc1 |  | > 100 | > 100 | > 100 | > 100 | > 100 |  | > 100 | > 100 | 57.3 |  |  |  |  |  |  |  |
| O=C(O)c1cccc(NC(C(=O)c2ccccc2)c2ccccc2)c1 (stereo not given) | > 100 | > 100 | > 100 | > 100 | > 100 | > 100 |  | > 100 | > 100 | > 100 |  |  |  |  |  |  |  |
| Cc1nc(-c2cc3ccccc3oc2=O)cs1 | > 100 |  | > 100 | > 100 | > 100 | > 100 | 31 | > 100 | > 100 | > 100 |  |  |  |  |  |  |  |
| O=C(N=Nc1ccccc1Cl)NNc1ccccc1Cl | 34.4 | 95.3 | > 100 | > 100 | 92.6 | > 100 |  | > 100 | > 100 |  |  |  |  |  |  |  |  |
| Clc1cc(Cl)ncn1 | > 100 | > 100 | > 100 | > 100 | > 100 | > 100 |  | > 100 | > 100 | > 100 |  |  |  |  |  |  |  |
| Cc1nc(Nc2ccccc2Cl)sc1C(=O)CC(=O)C(N)=O | > 100 | > 100 |  | > 100 | > 100 | > 100 | > 100 | > 100 | > 100 | > 100 |  |  |  |  |  |  |  |
| NC(=O)CN1C=CCC(C(N)=O)=C1 | > 100 | > 100 |  | > 100 | > 100 | > 100 | > 100 | > 100 | > 100 | > 100 |  |  |  |  |  |  |  |
| CCC(=O)OC1CCn2c1nc1c2C(=O)C(C)=C(NC(C)=O)C1=N (stereo not given) | 6.06 | 3.31 | > 100 | 2.39 | 3.95 | 2.44 |  | 6.27 | 4.94 | 3.21 |  |  |  |  |  |  |  |
